According to EP4011367A1, “COMPOUNDS FOR USE IN THE TREATMENT OF COVID-19” (priority 2020, dated 2022):
Counter-ions that a name gives are not always drawn. Like-named read-outs stand apart in the source and are kept apart here.

Target: T1, SARS-CoV-2 3CL-Pro (Severe acute respiratory syndrome coronavirus 2, UniProt P0DTD1)
T1 construct: SARS-CoV-2 main protease (3CL-Pro), also termed M-Pro
Experiment: biochemical
Conditions: for inhibition at 20 µM: read-out: 3CL-Pro Inhibition [%] Primary Screen (20 µM)

[1] = dose response, 8 concentrations, absence of DTT, 60 min pre-incubation at 37 °C, 15 µM substrate, 60 nM enzyme, read-out: IC50

Compound | inhibition at 20 µM [%] | IC50 (read-out: IC50) [nM] | further results
COc1ccc2[nH]c([S+]([O-])Cc3ncc(C)c(OC)c3C)nc2n1 (racemic) [compound 9, (±)-5-Methoxy-2-(4-methoxy-3,5-dimethylpyridin-2-ylmethylsulfinyl)imidazo[4,5-b]pyridine] | 69.1 |  | IC50: 970 nM
Oc1cc2c(cc1O)[C@@H]1c3ccccc3CN[C@H]1CC2 (relative stereo) [compound 77, trans-10,11-Dihydroxy-5,6,6a,7,8,12b-hexahydrobenzo[a]phenanthridine] |  |  | IC50: 1050 nM
O=c1cc(-c2ccccc2)oc2cc(O)c(O)c(O)c12 [compound 1, 5,6,7-Trihydroxy-2-phenyl-4H-1-benzopyran-4-one] | 97.8 |  | 
O=C1c2c(O)cc(O)cc2O[C@H](c2cc(O)c(O)c(O)c2)[C@H]1O [compound 2, (+)-3(R),5,7-Trihydroxy-2(R)-(3,4,5-trihydroxyphenyl)-3,4-dihydro-2H-1-benzopyran-4-one] | 99.7 |  | 
O=c1cc(-c2ccc(O)cc2)oc2cc(O)cc(O)c12 [compound 4, 4',5,7-Trihydroxyflavone] | 94.5 | 3020 | 
C[C@@H]1O[C@@H](Oc2c(-c3cc(O)c(O)c(O)c3)oc3cc(O)cc(O)c3c2=O)[C@H](O)[C@H](O)[C@H]1O [compound 5, 5,7-Dihydroxy-4-oxo-2-(3,4,5-trihydroxyphenyl)-4H-1-benzopyran-3-yl alpha-L-rhamnopyranoside] | 90.6 |  | IC50: 3660 nM
O=C(O[C@@H]1Cc2c(O)cc(O)cc2O[C@@H]1c1cc(O)c(O)c(O)c1)c1cc(O)c(O)c(O)c1 [compound 6, (-)-3,4,5-Trihydroxybenzoic acid 5,7-dihydroxy-2(R)-(3,4,5-trihydroxyphenyl)-3,4-dihydro-2H-1-benzopyran-3(R)-ylester] | 95.3 |  | 
COCCCOc1ccnc(C[S+]([O-])c2nc3ccccc3[nH]2)c1C (centres unmarked) [compound 8, 2-[4-(3-Methoxypropoxy)-3-methylpyridin-2-ylmethylsulfinyl]benzimidazol-1-ide sodium salt] | 94.3 | 740 | 
O=c1c2ccccc2[se]n1-c1ccccc1 [compound 10, 2-Phenyl-1,2-benzisoselenazol-3(2H)-one] | 100 |  | 
Cc1ccc(C)c(-n2sc3cc(F)ccc3c2=O)c1 [compound 11, 2-(2,5-Dimethylphenyl)-6-fluoro-1,2-benzothiazol-3(2H)-one] | 101 | 20 | 
Cc1ccc(-n2sc3ccccc3c2=O)cc1 [compound 12, 2-(4-methylphenyl)-1,2-benzothiazol-3-one] | 101 |  | IC50: 20 nM
CN(C)S(=O)(=O)c1cccc(-n2sc3ccccc3c2=O)c1 [compound 13, N,N-di methyl-3-(3-oxo-1,2-benzothiazol-2-yl)benzenesulfonamide] | 101 |  | IC50 [1]: 20 nM
O=c1c2ccccc2sn1-c1ccccc1 [compound 14, 2-phenyl-1,2-benzothiazol-3-one] | 100 |  | IC50: 20 nM
O=C1C(Cl)=C(N2CCOCC2)C(=O)N1c1ccc(Cl)c(Cl)c1 [compound 15, 3-chloro-1-(3,4-dichlorophenyl)-4-morpholin-4-ylpyrrole-2,5-dione] | 99.2 | 1140 | 
CN1CCN(C2=C(Cl)C(=O)N(c3ccc(Cl)c(Cl)c3)C2=O)CC1 [compound 16, 3-chloro-1-(3,4-dichlorophenyl)-4-(4-methylpiperazin-1-yl)pyrrole-2,5-dione] | 100 |  | 
Cc1ccc(S(=O)(=O)C=CC#N)cc1 [compound 17, 3-(4-Methylphenylsulfonyl)-2-propenenitrile] | 95.7 |  | IC50: 820 nM
CC(C)(C)c1ccc(S(=O)(=O)/C=C/C#N)cc1 [compound 18, 3-(4-tert-Butylphenylsulfonyl)-2(E)-propenenitrile] | 100 | 840 | 
Cn1sc(=O)n(Cc2ccccc2)c1=O [compound 19, 4-Benzyl-2-methyl-1,2,4-thiadiazolidine-3,5-dione] | 101 | 140 | 
S=c1[nH]nc(Cc2ccccc2)s1 [compound 20, 5-benzyl-3H-1,3,4-thiadiazole-2-thione] | 101 |  | IC50 [1]: 390 nM
Cc1ccc(S(=O)(=O)N[C@@H](Cc2ccccc2)C(=O)C(=O)CCl)cc1 [compound 21, N-[(2S)-5-chloro-3,4-dioxo-1-phenylpentan-2-yl]-4-methylbenzenesulfonamide] | 99.7 |  | IC50: 1370 nM
CC(Cc1ccc(O)c(O)c1)C(C)Cc1ccc(O)c(O)c1 (centres unmarked) [compound 22, 4-[4-(3,4-dihydroxyphenyl)-2,3-dimethylbutyl]benzene-1,2-diol] | 98.5 | 2590 | 
O=C1C2CC=CCC2C(=O)N1SC(Cl)(Cl)Cl (centres unmarked) [compound 23, 2-(trichloromethylsulfanyl)-3a,4,7,7a-tetrahydroisoindole-1,3-dione] | 99.8 | 670 | 
S=c1[nH]c2ccccc2s1 [compound 24, 3H-1,3-benzothiazole-2-thione] | 94 | 1740 | 
c1ccc2sc(SNC3CCCCC3)nc2c1 [compound 26, N-(1,3-benzothiazol-2-ylsulfanyl)cyclohexanamine] | 70.1 | 770 | 

Compound | inhibition at 20 µM [%] | IC50 (read-out: IC50) [nM] | further results
c1ccc2sc(SN3CCOCC3)nc2c1 [compound 27, 4-(1,3-benzothiazol-2-ylsulfanyl)morpholine] | 99 | 5050 | 
CCC(C)SSc1ncc[nH]1 (centres unmarked) [compound 28, (2-Imidazolyl)(1-methylpropyl)disulfide] | 100 |  | 
O=C(O)c1ccc(SSc2ccc(C(=O)O)cn2)nc1 [compound 29, 6-[(5-carboxypyridin-2-yl)disulfanyl]pyridine-3-carboxylic acid] | 100 | 240 | 
Oc1ccc2ccccc2c1SSc1c(O)ccc2ccccc12 [compound 30, 1,1'-Disulfanediylbis(2-naphthol)] | 91.3 | 510 | 
O=C1C=Cc2cc(Br)ccc2C1=O [compound 32, 6-Bromonaphthalene-1,2-dione] | 102 | 40 | 
C=CC(=O)c1ccc2ccccc2c1 [compound 33, 1-naphthalen-2-ylprop-2-en-1-one] | 94.5 | 1240 | 
Nc1ccc(O)c2ncccc12 [compound 34, 5-aminoquinolin-8-ol] | 99.3 | 2050 | 
CCC(=O)OCN1C(=O)C=CC1=O [compound 36, Propionic acid 2,5-dioxo-2,5-dihydro-1H-pyrrol-1-ylmethyl ester] | 100 | 290 | 
CN(C)CCNc1nc2cc(O)ccc2c2c1C(=O)c1ccccc1-2 [compound 38, 6-[2-(Dimethylamino)ethylamino]-3-hydroxy-7H-indeno[2,1-c]quinolin-7-one dihydrochloride] | 96.1 | 2990 | 
CCCC[C@@H](C=O)NC(=O)[C@H](CC(C)C)NC(=O)OCc1ccccc1 [compound 39, N2-[(Benzyloxy)carbonyl]-N-[(2S)-1-oxohexan-2-yl]-L-leucinamide] | 81 |  | 
CC(C)[C@H](NC(=O)[C@H](CCC(=O)O)NC(=O)[C@H](CC(=O)O)NC(=O)OCc1ccccc1)C(=O)N[C@@H](CC(=O)O)C(=O)CF [compound 40, N-(Benzyloxycarbonyl)-L-aspartyl-L-glutamyl-L-valyl-L-aspartylfluoromethane] | 100 |  | IC50: 10 nM
CC(=O)[O-].[Hg+][c]1ccccc1 [compound 42, acetyloxy(phenyl)mercury] |  |  | IC50: 10 nM
O=C1C(Cl)=C(Cl)C(=O)C(Cl)=C1Cl [compound 43, 2,3,5,6-tetrachlorocyclohexa-2,5-diene-1,4-dione] | 101 | 20 | 
Nc1nnc(Sc2ncc([N+](=O)[O-])s2)s1 [compound 44, 5-(5-Nitrothiazol-2-ylsulfanyl)-1,3,4-thiadiazol-2-amine] | 99.9 | 30 | 
CN(C)C(=S)SSC(=S)N(C)C [compound 45, dimethylcarbamothioylsulfanyl N ,N-dimethylcarbamodithioate] | 99.9 | 50 | 
CCN(CC)C(=S)SSC(=S)N(CC)CC [compound 46, Tetraethylthioperoxydicarbonic diamide] | 99.7 |  | 
[O-]n1ccccc1=S.[O-]n1ccccc1=S.[Zn+2] [compound 47, Bis[1-hydroxy-2(1H)-pyiridinethionato]zinc] |  | 2460 | 3CL-Pro Inhibition [%] Primary Screen (20 µM): 99.7%
On1ccccc1=S [compound 48, 1-hydroxypyridine-2-thione] | 101 |  | IC50: 50 nM
O=c1sn(-c2cccc3ccccc23)c(=O)n1Cc1ccccc1 [compound 49, 4-Benzyl-2-(1-naphthyl)-1,2,4-thiadiazolidine-3,5-dione] | 101 |  | 
O=[N+]([O-])c1ccc(Sc2cccc[n+]2[O-])c2nonc12 [compound 50, 4-Nitro-1-[(1-oxidopyridin-2-yl)sulfanyl]-2,1,3-benzoxadiazole] | 102 | 100 | 
CCN1CCN(C(c2ccc(C(F)(F)F)cc2)c2ccc3cccnc3c2O)CC1 (centres unmarked) [compound 52, 7-[(4-Ethylpiperazin-1-yl)[4-(trifluoromethyl)phenyl]methyl]q uinolin-8-ol] | 100 | 150 | 
Cc1ccc(-n2sc(=O)n(Cc3ccc(F)cc3)c2=O)cc1 [compound 53, 4-(4-Fluorobenzyl)-2-(4-methylphenyl)-1,2,4-thiadiazolidine-3,5-dione] |  | 150 | 
CCCCCCNC(=O)n1cc(F)c(=O)[nH]c1=O [compound 55, 5-Fluoro-N-hexyl-2,4-dioxo-1,2,3,4-tetrahydropyrimidine-1-carboxamide] | 101 |  | 
O=C(CCl)c1ccccc1 [compound 56, 2-chloro-1-phenylethanone] | 99.9 | 190 | 
